{"source": "paper PMC2901233", "about": "(Nuclear medicine and biology, 2010)", "key": {"[1]": {"assay": "plasma protein binding by the ultrafiltration method", "assay_type": "in vitro ADME, baboon (Papio anubis)"}, "[2]": {"assay": "reversed phase HPLC analysis of components of plasma radioactivity", "assay_type": "in vivo, baboon (Papio anubis)"}, "[3]": {"assay_type": "in vivo, baboon (Papio anubis)"}, "serotonin transporters": {"test_system": "serotonin transporters", "assay": "SPECT binding potential", "assay_type": "in vivo, baboon (Papio anubis)"}, "5-HT transporter": {"test_system": "5-HT transporter", "settings": "cited from earlier work"}, "dopamine transporter": {"test_system": "dopamine transporter", "settings": "cited from earlier work"}, "[4]": {"settings": "3 min after injection, arterial plasma"}, "[5]": {"settings": "5 min after injection, arterial plasma"}, "[6]": {"settings": "10 min after injection, arterial plasma"}, "[7]": {"settings": "30 min after injection, arterial plasma"}, "[8]": {"settings": "60 min after injection, arterial plasma"}, "[9]": {"settings": "120 min after injection, arterial plasma"}, "[10]": {"settings": "180 min after injection, arterial plasma"}, "[11]": {"settings": "360 min after injection, arterial plasma"}, "[12]": {"settings": "MRTM2 analysis, bolus only study, first animal"}, "[13]": {"settings": "average of equilibrium scans prior to displacement, same animal as MRTM2"}, "[14]": {"settings": "0.5 mg/kg IV at 8 h post-radiotracer, n=2"}}, "note": "Several values for one entry are separate records, joined by “and”; a condition that tells them apart may be missing. Equal values may be shown once. Entries after “also recorded” stand apart in the source; their conditions may differ.", "data": [{"smiles": "COC(=O)C1C2CCC(CC1c1ccc(/C=C\\I)cc1)N2", "note": "(stereo not drawn) [[^123I]p ZIENT, 2β-carbomethoxy-3β-(4′-((Z)-2-iodoethenyl)phenyl)nortropane]", "values": [{"measurement": "protein bound in plasma", "setting": "[1]; first of the two baboons", "result": "93.1± 0.3% and 93%"}, {"measurement": "protein bound in plasma", "setting": "[1]; second of the two baboons", "result": "89.8 ± 0.7% and 90%"}, {"measurement": "Relative proportion of plasma radioactivity, Parent Compound", "setting": "[2]; 1 min after injection, arterial plasma", "result": 69, "unit": "%"}, {"measurement": "Relative proportion of plasma radioactivity, Parent Compound", "setting": "[2]; [4]", "result": 69, "unit": "%"}, {"measurement": "Relative proportion of plasma radioactivity, Polar Fraction (metabolite)", "setting": "[2]; [4]", "result": 5, "unit": "%"}, {"measurement": "combined two polar metabolite fractions as percent of total plasma activity", "setting": "[2]; 3 min post-injection", "result": 31, "unit": "%"}, {"measurement": "Relative proportion of plasma radioactivity, Parent Compound", "setting": "[2]; [5]", "result": 65, "unit": "%"}, {"measurement": "Relative proportion of plasma radioactivity, Polar Fraction (metabolite)", "setting": "[2]; [5]", "result": 10, "unit": "%"}, {"measurement": "Relative proportion of plasma radioactivity, Parent Compound", "setting": "[2]; [6]", "result": 43, "unit": "%"}, {"measurement": "Relative proportion of plasma radioactivity, Polar Fraction (metabolite)", "setting": "[2]; [6]", "result": 41, "unit": "%"}, {"measurement": "Relative proportion of plasma radioactivity, Parent Compound", "setting": "[2]; [7]", "result": 16, "unit": "%"}, {"measurement": "Relative proportion of plasma radioactivity, Polar Fraction (metabolite)", "setting": "[2]; [7]", "result": 78, "unit": "%"}, {"measurement": "Relative proportion of plasma radioactivity, Parent Compound", "setting": "[2]; [8]", "result": 10, "unit": "%"}, {"measurement": "Relative proportion of plasma radioactivity, Polar Fraction (metabolite)", "setting": "[2]; [8]", "result": 87, "unit": "%"}, {"measurement": "Relative proportion of plasma radioactivity, Parent Compound", "setting": "[2]; [9]", "result": 5, "unit": "%"}, {"measurement": "Relative proportion of plasma radioactivity, Polar Fraction (metabolite)", "setting": "[2]; [9]", "result": 94, "unit": "%"}, {"measurement": "Relative proportion of plasma radioactivity, Parent Compound", "setting": "[2]; [10]", "result": 4, "unit": "%"}, {"measurement": "Relative proportion of plasma radioactivity, Polar Fraction (metabolite)", "setting": "[2]; [10]", "result": 95, "unit": "%"}, {"measurement": "combined two polar metabolite fractions as percent of total plasma activity", "setting": "[2]; 180 min post-injection", "result": 96, "unit": "%"}, {"measurement": "Relative proportion of plasma radioactivity, Parent Compound", "setting": "[2]; [11]", "result": 3, "unit": "%"}, {"measurement": "Relative proportion of plasma radioactivity, Polar Fraction (metabolite)", "setting": "[2]; [11]", "result": 96, "unit": "%"}, {"measurement": "time of peak level of radioactivity in arterial plasma", "setting": "[2]; after bolus injection", "result": "4 to 7", "unit": "min"}, {"measurement": "time of peak of the transient fraction", "setting": "[2]; arterial plasma", "result": "3 to 5", "unit": "min"}, {"measurement": "unmetabolized parent as proportion of plasma radioactivity", "setting": "[2]; at the time of peak level of radioactivity in arterial plasma (4-7 min)", "result": 69, "unit": "%"}, {"measurement": "lipophilic radiolabeled metabolites entering the brain", "setting": "[2]; baboon arterial plasma, HPLC", "result": "no detection; also recorded: detected no radiometabolites that are capable of entering the brain"}, {"measurement": "transient fraction at its peak, proportion of plasma radioactivity", "setting": "[2]; peak at 3-5 min", "result": 26, "unit": "%"}, {"measurement": "time of peak whole brain uptake", "setting": "[3]; bolus IV injection", "result": 74, "unit": "min"}, {"measurement": "whole brain uptake, percent of injected dose", "setting": "[3]; bolus IV injection, at peak (74 min)", "result": 2.3, "unit": "%"}, {"measurement": "time at which equilibrium was established", "setting": "[3]; bolus to constant infusion at a ratio of 9.0 h", "result": "4 to 8", "unit": "h"}, {"measurement": "change per hour at equilibrium", "setting": "[3]; bolus to constant infusion, between 4-8 h", "result": "< 5", "unit": "%"}, {"measurement": "BPND basal ganglia", "setting": "serotonin transporters; [12]", "result": 0.97}, {"measurement": "BPND brainstem", "setting": "serotonin transporters; [12]", "result": 1.34}, {"measurement": "BPND diencephalon", "setting": "serotonin transporters; [12]", "result": 1.48}, {"measurement": "BPND hippocampus", "setting": "serotonin transporters; [12]", "result": 0.49}, {"measurement": "BPND temporal cortex", "setting": "serotonin transporters; [12]", "result": 0.39}, {"measurement": "BPND basal ganglia", "setting": "serotonin transporters; [13]", "result": 0.81}, {"measurement": "BPND brainstem", "setting": "serotonin transporters; [13]", "result": 1.34}, {"measurement": "BPND diencephalon", "setting": "serotonin transporters; [13]", "result": 1.04}, {"measurement": "BPND hippocampus", "setting": "serotonin transporters; [13]", "result": 0.82}, {"measurement": "BPND temporal cortex", "setting": "serotonin transporters; [13]", "result": 0.22}, {"measurement": "BPND basal ganglia", "setting": "serotonin transporters; second animal", "result": 2.9}, {"measurement": "BPND brainstem", "setting": "serotonin transporters; second animal", "result": 4.32}, {"measurement": "BPND diencephalon", "setting": "serotonin transporters; second animal", "result": 3.83}, {"measurement": "BPND hippocampus", "setting": "serotonin transporters; second animal", "result": 2.07}, {"measurement": "BPND temporal cortex", "setting": "serotonin transporters; second animal", "result": 1.28}, {"measurement": "SERT binding affinity", "setting": "5-HT transporter", "result": "~0.05", "unit": "nM"}, {"measurement": "specificity for binding to the 5-HT transporter compared to the dopamine transporter", "setting": "dopamine transporter", "result": 100, "unit": "fold"}]}, {"smiles": "COC(=O)C(c1ccccc1)C1CCCCN1", "note": "(centres unmarked) [Methylphenidate, methylphenidate]", "values": [{"measurement": "Percent Displacement in [123I]p ZIENT (BPND), Basal Ganglia", "setting": "serotonin transporter; [14]", "result": -4, "unit": "%"}, {"measurement": "Percent Displacement in [123I]p ZIENT (BPND), Brainstem", "setting": "serotonin transporter; [14]", "result": -11, "unit": "%"}, {"measurement": "Percent Displacement in [123I]p ZIENT (BPND), Diencephalon", "setting": "serotonin transporter; [14]", "result": -5, "unit": "%"}, {"measurement": "Percent Displacement in [123I]p ZIENT (BPND), Hippocampus", "setting": "serotonin transporter; [14]", "result": -8, "unit": "%"}, {"measurement": "Percent Displacement in [123I]p ZIENT (BPND), Temporal Cortex", "setting": "serotonin transporter; [14]", "result": -1, "unit": "%"}, {"measurement": "displacement of [123I]p ZIENT in all regions studied, in words", "setting": "serotonin transporter; IV at 8 h post-radiotracer, fluoxetine 1.5, 2.5, citalopram 5, methylphenidate 0.5, nisoxetine 1 mg/kg", "result": "no significant changes"}]}]}
